{
  "source": "patent US6737383B1",
  "about": "“Herbicidal oxadiazolidines” (priority 1999, dated 2004)",
  "key": {"giant foxtail": {"test_system": "giant foxtail", "assay": "Test B pre/postemergence giant foxtail", "type": "in vivo, Setaria faberii", "how_it_was_run": "(§1)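 Test chemicals in a non-phytotoxic solvent mixture with surfactant were sprayed preemergence onto planted seeds and postemergence onto plants 2 to 18 cm tall (1- to 4-leaf stage). After twelve to sixteen days in a greenhouse, injury was visually rated against untreated controls from 0 (no effect) to 10 (complete control).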"}, "morningglory": {"test_system": "morningglory", "assay": "Test B pre/postemergence morningglory", "type": "in vivo, Ipomoea hederacea", "how_it_was_run": "as §1"}, "rice": {"test_system": "rice", "assay": "Test B flood test rice", "type": "in vivo, Oryza sativa", "how_it_was_run": "(§2)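 Flood test on plants grown to the 2-leaf stage; treated plants kept in greenhouse twelve to sixteen days, then visually rated against controls on a 0 (no effect) to 10 (complete control) scale.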"}, "duck salad": {"test_system": "duck salad", "assay": "Test B flood test duck salad", "type": "in vivo, Heteranthera limosa", "how_it_was_run": "as §2"}, "[1]": {"details": "Postemergence, Rate 125 g/ha, scale 0 to 10, 0 is no effect, 10 is complete control"}, "[2]": {"details": "Preemergence, Rate 62 g/ha, scale 0 to 10 (0 no effect, 10 complete control)"}, "[3]": {"details": "Preemergence, Rate 250 g/ha, scale of 0 to 10 where 0 is no effect and 10 is complete control"}, "[4]": {"details": "Preemergence, Rate 500 g/ha, scale of 0 to 10 where 0 is no effect and 10 is complete control"}, "[5]": {"details": "Rate 62 g/ha, Postemergence, scale of 0 to 10 where 0 is no effect and 10 is complete control"}, "[6]": {"details": "Rate 500 g/ha, Postemergence, scale 0 to 10, 0 no effect, 10 complete control"}, "[7]": {"details": "Postemergence (flood test), Rate 125 g/ha, scale 0 to 10, 0 is no effect, 10 is complete control"}, "[8]": {"details": "Rate 62 g/ha, Postemergence (flood test species), scale of 0 to 10 where 0 is no effect and 10 is complete control"}, "[9]": {"details": "Rate 500 g/ha, listed under Postemergence (flood test species), scale 0 to 10, 0 no effect, 10 complete control"}, "[10]": {"details": "Postemergence, Rate 250 g/ha, scale 0 to 10"}, "[11]": {"details": "Preemergence, Rate 62 g/ha, scale of 0 to 10 where 0 is no effect and 10 is complete control"}, "[12]": {"details": "Preemergence, Rate 125 g/ha, scale of 0 to 10 where 0 is no effect and 10 is complete control"}, "[13]": {"details": "Preemergence, Rate 250 g/ha, scale 0 to 10, 0 is no effect, 10 is complete control"}, "[14]": {"details": "Preemergence, Rate 500 g/ha, scale 0 to 10, 0 is no effect, 10 is complete control"}, "[15]": {"details": "Rate 62 g/ha, Postemergence, scale 0 to 10 (0 no effect, 10 complete control)"}, "[16]": {"details": "Rate 125 g/ha, Postemergence, scale 0 to 10, 0 is no effect, 10 is complete control"}, "[17]": {"details": "Rate 62 g/ha, flood test species, Pre-emergence, visual evaluation after twelve to sixteen days"}, "[18]": {"details": "Rate 125 g/ha, under heading Pre-emergence, flood test species, visual evaluation after twelve to sixteen days"}, "[19]": {"details": "Rate 250 g/ha, Pre-emergence (flood test species), scale 0 to 10, 0 is no effect, 10 is complete control"}, "[20]": {"details": "Rate 500 g/ha, Pre-emergence, flood test species, scale 0 to 10 (0 no effect, 10 complete control)"}, "[21]": {"details": "Preemergence, Rate 125 g/ha, 0 is no effect, 10 is complete control"}, "[22]": {"details": "Preemergence, Rate 500 g/ha, scale 0 to 10 (0 no effect, 10 complete control)"}, "[23]": {"details": "Rate 125 g/ha, Postemergence, scale 0 to 10"}, "[24]": {"details": "Rate 500 g/ha, Postemergence, scale 0 to 10"}, "[25]": {"details": "Rate 62 g/ha, headed Pre-emergence (flood test species), scale 0 to 10 (0 no effect, 10 complete control)"}, "[26]": {"details": "Rate 125 g/ha, Pre-emergence, flood test species, scale 0 to 10 where 0 is no effect and 10 is complete control"}, "[27]": {"details": "Rate 250 g/ha, Pre-emergence, flood-test species, scale 0 to 10, 0 is no effect, 10 is complete control"}, "[28]": {"details": "Rate 500 g/ha, headed Pre-emergence (flood test species), scale 0 to 10 (0 no effect, 10 complete control)"}},
  "data": [
    {"smiles": "CC(C)N(C(=O)n1oc(=O)n(C2CCC2)c1=O)c1ccccc1", "note": "[Compound 348]", "values": [
      {"measurement": "Plant response rating, Giant foxtail", "setting": "giant foxtail; [1]", "value": 8},
      {"measurement": "Plant response rating, Giant foxtail", "setting": "giant foxtail; [2]", "value": 9},
      {"measurement": "Giant foxtail plant response rating (0 to 10 scale)", "setting": "giant foxtail; Preemergence, Rate 125 g/ha", "value": 10},
      {"measurement": "Giant foxtail plant response rating", "setting": "giant foxtail; [3]", "value": 10},
      {"measurement": "Giant foxtail plant response rating", "setting": "giant foxtail; [4]", "value": 10},
      {"measurement": "Giant foxtail plant response rating", "setting": "giant foxtail; [5]", "value": 3},
      {"measurement": "Plant response rating, Giant foxtail", "setting": "giant foxtail; [6]", "value": 9},
      {"measurement": "Plant response rating, Morningglory", "setting": "morningglory; [1]", "value": 9},
      {"measurement": "Plant response rating, Morningglory", "setting": "morningglory; [2]", "value": 0},
      {"measurement": "Morningglory plant response rating (0 to 10 scale)", "setting": "morningglory; Preemergence, Rate 125 g/ha", "value": 0},
      {"measurement": "Morningglory plant response rating", "setting": "morningglory; [3]", "value": 0},
      {"measurement": "Morningglory plant response rating", "setting": "morningglory; [4]", "value": 0},
      {"measurement": "Morningglory plant response rating", "setting": "morningglory; [5]", "value": 2},
      {"measurement": "Plant response rating, Morningglory", "setting": "morningglory; [6]", "value": 10},
      {"measurement": "Plant response rating, Rice", "setting": "rice; [7]", "value": 0},
      {"measurement": "Rice plant response rating", "setting": "rice; [8]", "value": 0},
      {"measurement": "Plant response rating, Rice", "setting": "rice; [9]", "value": 0},
      {"measurement": "Plant response rating, Ducksalad", "setting": "duck salad; [7]", "value": 3},
      {"measurement": "Ducksalad plant response rating", "setting": "duck salad; [8]", "value": 0},
      {"measurement": "Plant response rating, Ducksalad", "setting": "duck salad; [9]", "value": 4}
    ]},
    {"smiles": "CC(C)N(C(=O)n1oc(=O)n(C(C)C(=O)N(C)C)c1=O)c1ccc(Cl)cc1", "note": "(stereo not shown) [Compound 480]", "values": [
      {"measurement": "Giant foxtail plant response rating", "setting": "giant foxtail; [10]", "value": 8},
      {"measurement": "Giant foxtail plant response rating", "setting": "giant foxtail; Postemergence, Rate 500 g/ha, scale of 0 to 10 where 0 is no effect and 10 is complete control", "value": 8},
      {"measurement": "Plant response rating, Giant foxtail", "setting": "giant foxtail; [11]", "value": 10},
      {"measurement": "Plant response rating, Giant foxtail", "setting": "giant foxtail; [12]", "value": 10},
      {"measurement": "Giant foxtail plant response rating", "setting": "giant foxtail; [13]", "value": 10},
      {"measurement": "Giant foxtail plant response rating", "setting": "giant foxtail; [14]", "value": 10},
      {"measurement": "Giant foxtail plant response rating", "setting": "giant foxtail; [15]", "value": 3},
      {"measurement": "Giant foxtail plant response rating", "setting": "giant foxtail; [16]", "value": 5},
      {"measurement": "Morningglory plant response rating", "setting": "morningglory; [10]", "value": 7},
      {"measurement": "Plant response rating, Morningglory", "setting": "morningglory; [11]", "value": 0},
      {"measurement": "Plant response rating, Morningglory", "setting": "morningglory; [12]", "value": 0},
      {"measurement": "Morningglory plant response rating", "setting": "morningglory; [13]", "value": 0},
      {"measurement": "Morningglory plant response rating", "setting": "morningglory; [14]", "value": 0},
      {"measurement": "Morningglory plant response rating", "setting": "morningglory; [15]", "value": 2},
      {"measurement": "Morningglory plant response rating", "setting": "morningglory; [16]", "value": 4},
      {"measurement": "Plant response rating, Rice (0 to 10 scale, 0 is no effect, 10 is complete control)", "setting": "rice; [17]", "value": 0},
      {"measurement": "Rice plant response rating (0 to 10 scale, 0 is no effect, 10 is complete control)", "setting": "rice; [18]", "value": 0},
      {"measurement": "Rice plant response rating", "setting": "rice; [19]", "value": 0},
      {"measurement": "Rice plant response rating", "setting": "rice; [20]", "value": 0},
      {"measurement": "Plant response rating, Ducksalad (0 to 10 scale, 0 is no effect, 10 is complete control)", "setting": "duck salad; [17]", "value": 0},
      {"measurement": "Ducksalad plant response rating (0 to 10 scale, 0 is no effect, 10 is complete control)", "setting": "duck salad; [18]", "value": 0},
      {"measurement": "Ducksalad plant response rating", "setting": "duck salad; [19]", "value": 0},
      {"measurement": "Ducksalad plant response rating", "setting": "duck salad; [20]", "value": 0}
    ]},
    {"smiles": "COc1nc(OC)nc(N(C(=O)n2oc(=O)n(C(C)C)c2=O)C(C)C)n1", "note": "[Compound 182]", "values": [
      {"measurement": "Giant foxtail plant response rating", "setting": "giant foxtail; [11]", "value": 0},
      {"measurement": "Giant foxtail plant response rating (0 to 10 scale)", "setting": "giant foxtail; [21]", "value": 0},
      {"measurement": "Giant foxtail plant response rating", "setting": "giant foxtail; [13]", "value": 0},
      {"measurement": "Giant foxtail plant response rating", "setting": "giant foxtail; [22]", "value": 0},
      {"measurement": "Giant foxtail plant response rating", "setting": "giant foxtail; [5]", "value": 0},
      {"measurement": "Giant foxtail plant response rating", "setting": "giant foxtail; [23]", "value": 0},
      {"measurement": "Plant response rating (0 to 10; 0 is no effect, 10 is complete control), Giant foxtail", "setting": "giant foxtail; Rate 250 g/ha, Postemergence", "value": 0},
      {"measurement": "Giant foxtail plant response rating", "setting": "giant foxtail; [24]", "value": 0},
      {"measurement": "Morningglory plant response rating", "setting": "morningglory; [11]", "value": 0},
      {"measurement": "Morningglory plant response rating (0 to 10 scale)", "setting": "morningglory; [21]", "value": 0},
      {"measurement": "Morningglory plant response rating", "setting": "morningglory; [13]", "value": 0},
      {"measurement": "Morningglory plant response rating", "setting": "morningglory; [22]", "value": 0},
      {"measurement": "Morningglory plant response rating", "setting": "morningglory; [5]", "value": 0},
      {"measurement": "Morningglory plant response rating", "setting": "morningglory; [23]", "value": 0},
      {"measurement": "Plant response rating (0 to 10; 0 is no effect, 10 is complete control), Morningglory", "setting": "morningglory; Rate 250 g/ha, Postemergence", "value": 0},
      {"measurement": "Morningglory plant response rating", "setting": "morningglory; [24]", "value": 0},
      {"measurement": "Rice plant response rating", "setting": "rice; [25]", "value": 0},
      {"measurement": "Rice plant response rating", "setting": "rice; [26]", "value": 0},
      {"measurement": "Rice plant response rating", "setting": "rice; [27]", "value": 0},
      {"measurement": "Plant response rating, Rice", "setting": "rice; [28]", "value": 0},
      {"measurement": "Ducksalad plant response rating", "setting": "duck salad; [25]", "value": 0},
      {"measurement": "Ducksalad plant response rating", "setting": "duck salad; [26]", "value": 0},
      {"measurement": "Ducksalad plant response rating", "setting": "duck salad; [27]", "value": 0},
      {"measurement": "Plant response rating, Ducksalad", "setting": "duck salad; [28]", "value": 0}
    ]}
  ]
}
